Experimental data taken from patent US20260272797A1, “FRAGRANCE COMPOSITION” (GIVAUDAN SA, priority 2023, published 2026).

Experiment: Gas-phase evaluation of each fragrance ingredient alone against model scalp malodour, MiniVAS device, panel of 5 experts
Conditions: Table 3, air flow 50 ml/min, scale of 1-5 (1=barely noticeable, 5=very strong)
Method: In a first set of experiments, the scalp malodour counteractancy of 173 fragrance ingredients was evaluated by panel of 5 experts.
The evaluation was performed in the gas phase, using a MiniVAS™ device (ex Givaudan SA). This device is a regulating means that comprises a plurality of channels adapted to convey a gas (more particularly air) through cartridges, each cartridge containing a fragrance ingredient adsorbed onto an adsorbent. The air flows coming from the different cartridges are admixed and conveyed to the user's nose through a tubing fitted with an olfactometer funnel. Thus, by opening and closing channels and maintaining these opened and closed, respectively, for predetermined times, the regulating means can determine which fragrance ingredients and how much thereof are conveyed and when, and thus alter the nature of the fragrance perceived by the user. A description of the device can be found in WO2014154909A1, page 2, line 11 to page 4, line 7, and in H. R. Gygax et al. “Evolution of Real Time Aroma Creation at Givaudan”, poster presented at the 12th Weurman Flavour Research Symposium. July 2008. Interlaken, Switzerland; DOI: 10.13140/2.1.1924.0641.
For the sake of the present evaluation, one cartridge contained the scalp malodour (in the form of a model malodour) and each fragrance ingredient was assigned to another cartridge. The malodour counteractancy of each fragrance ingredient was evaluated separately against the scalp malodour. A constant air flow rate of 50 ml/min was used for all measurements. The perceived malodour intensity, as well as the fragrance intensity, were ranked on a scale of 1-5 (1=barely noticeable, 2=weak, 3=medium, 4=strong and 5=very strong).

| Compound | MO intensity |
| --- | --- |
| C=CC(C)(O)CC/C=C(\C)CCC=C(C)C (stereo not shown) [(E)-3,7,11-trimethyldodeca-1,6,10-trien-3-ol] | 1 |
| CC(=O)/C(C)=C/C1=C(C)CCCC1(C)C [(E)-3-methyl-4-(2,6,6-trimethylcyclohex-1-en-1-yl)but-3-en-2-one] | 3 |
| CC(=O)/C(C)=C/C1C(C)=CCCC1(C)C (stereo not shown) [(E)-3-methyl-4-(2,6,6-trimethylcyclohex-2-en-1-yl)but-3-en-2-one] | 3 |
| CC1=CCC(/C=C/C(C)C(C)O)C1(C)C (stereo not shown) [(E)-3-methyl-5-(2,2,3-trimethylcyclopent-3-en-1-yl)pent-4-en-2-ol] | 4.3 |
| O=CCC/C=C1\CC2CC1[C@H]1CCC[C@@H]21 (stereo partly drawn) [(E)-4-((3aS,7aS)-hexahydro-1H-4,7-methanoinden-5(6H)-ylidene)butanal] | 2.5 |
| C/C=C(\CC)CCC(C)CCO (stereo not shown) [(E)-6-ethyl-3-methyloct-6-en-1-ol] | 3 |
| CC1C/C=C/CCCCCCCC(=O)OCC1 (stereo not shown) [(E)-13-methyloxacyclopentadec-10-en-2-one] | 2 |
| CCCCCC/C=C/C(=O)OC [(E)-methyl non-2-enoate] | 1 |
| CC1C/C=C\CCCCCCCCCC(=O)C1 (stereo not shown) [(Z)-3-methylcyclopentadec-5-enone] | 2.1 |
| O=Cc1ccc2c(c1)OCO2 [benzo[d][1,3]dioxole-5-carbaldehyde] | 3 |
| O=C(OC1CCCCC1)c1ccccc1O [cyclohexyl 2-hydroxybenzoate] | 1 |
| CCOC(=O)CC1(C)OCCO1 [ethyl 2-(2-methyl-1,3-dioxolan-2-yl)acetate] | 2.3 |
| CCOC(=O)C(C)C [ethyl 2-methylpropanoate] | 1 |
| CCCCCCC(=O)OCC [ethyl heptanoate] | 1 |
| CCCCCCCC(=O)OCC [ethyl octanoate] | 1 |
| COC(=O)c1ccccc1N [methyl 2-aminobenzoate] | 4.3 |
| CCCCCCC#CC(=O)OC [methyl non-2-ynoate] | 1.8 |
| mercapto-para-menthan-3-one | 1 |

Same assay, conditions: Table 3, gas phase, expert description

| Compound | Scalp MOC of ingredient alone |
| --- | --- |
| C=CC(C)(O)CC/C=C(\C)CCC=C(C)C (stereo not shown) [(E)-3,7,11-trimethyldodeca-1,6,10-trien-3-ol] | No effect |
| CCCCCC/C=C/C(=O)OC [(E)-methyl non-2-enoate] | No effect |
| O=C(OC1CCCCC1)c1ccccc1O [cyclohexyl 2-hydroxybenzoate] | No effect |
| CCOC(=O)C(C)C [ethyl 2-methylpropanoate] | No effect |
| CCCCCCC(=O)OCC [ethyl heptanoate] | No effect |
| CCCCCCCC(=O)OCC [ethyl octanoate] | No effect |
| mercapto-para-menthan-3-one | No effect |

Same assay, conditions: Table 4, air flow 50 ml/min, scale of 1-5

| Compound | MO intensity |
| --- | --- |
| CC(=O)/C=C/C1C(C)=CCCC1(C)C (stereo not shown) [(E)-4-(2,6,6-trimethyl-1-cyclohex-2-enyl)but-3-en-2-one] | 4.5 |
| CC(=O)/C=C/C1=C(C)CCCC1(C)C [(E)-4-(2,6,6-trimethylcyclohex-1-en-1-yl)but-3-en-2-one] | 1 |
| CC(=O)OC/C=C(/C)CCC=C(C)C [(Z)-3,7-dimethylocta-2,6-dien-1-yl acetate] | 1 |
| CC/C=C\CC1=C(C)CCC1=O [(Z)-3-methyl-2-(pent-2-en-1-yl)cyclopent-2-enone] | 1.8 |
| O=C1CCC/C=C\CCCCCCCCCC1 [(Z)-cyclohexadec-5-enone] | 1 |
| CC/C=C\CCOC(=O)c1ccccc1 [(Z)-hex-3-en-1-yl benzoate] | 2 |
| C=CCOC(=O)COC1CCCCC1 [allyl 2-(cyclohexyloxy)acetate] | 4.3 |
| CC(=O)OCc1ccccc1 [benzyl acetate] | 0 |
| CCC(=O)OCc1ccccc1 [benzyl propanoate] | 1 |
| CCOC(=O)C1=C(C)C=CCC1(C)C [ethyl 2,6,6-trimethylcyclohexa-1,3-diene-1-carboxylate] | 1 |
| CCOC(=O)C1OC1(C)c1ccccc1 (stereo not shown) [ethyl methyl phenyl glycidate] | 1 |
| CCCCCCC1C(=O)CCC1C(=O)OC (stereo not shown) [methyl 2-hexyl-3-oxocyclopentane-1-carboxylate] | 1 |
| C=CCOC(=O)CCC1CCCCC1 [prop-2-enyl 3-cyclohexylpropanoate] | 1.5 |
| CC(C)CC1CC(C)(O)CCO1 (stereo not shown) [tetrahydro-4-methyl-2-(2-methylpropyl)-2H-pyran-4-ol] | 2.2 |
| CCCCCCCCCCC=O [undecanal] | 1 |

Same assay, conditions: Table 4, gas phase, expert description

| Compound | Scalp MOC of ingredient alone |
| --- | --- |
| CC/C=C\CC1=C(C)CCC1=O [(Z)-3-methyl-2-(pent-2-en-1-yl)cyclopent-2-enone] | Low coverage |
| O=C1CCC/C=C\CCCCCCCCCC1 [(Z)-cyclohexadec-5-enone] | Enhances MO |
| CC/C=C\CCOC(=O)c1ccccc1 [(Z)-hex-3-en-1-yl benzoate] | Low coverage |
| CC(=O)OCc1ccccc1 [benzyl acetate] | Enhances MO |
| CC(C)CC1CC(C)(O)CCO1 (stereo not shown) [tetrahydro-4-methyl-2-(2-methylpropyl)-2H-pyran-4-ol] | Low coverage |
| CCCCCCCCCCC=O [undecanal] | Enhances MO |

Experiment: Impact of fragrance ingredients on scalp malodour counteractancy of 80 fragrance compositions (Example 2 protocol, statistical presence)
Conditions: Table 3; series of 80 fragrance compositions
Method: In a second set of experiments, the impact of these fragrance ingredients on the scalp malodour counteractancy of a fragrance composition was assessed. The scalp malodour counteractancy of a series of 80 fragrance compositions was assessed by performing the evaluation protocol described in Example 2. […] Ingredients that were statistically more present in fragrances having a high malodour counteractancy were assigned a positive status, whereas ingredients that were statistically more present in compositions having a low malodour counteractancy were assigned a negative status.

| Compound | Impact on scalp MOC of fragrance composition |
| --- | --- |
| C=CC(C)(O)CC/C=C(\C)CCC=C(C)C (stereo not shown) [(E)-3,7,11-trimethyldodeca-1,6,10-trien-3-ol] | Positive |
| CC(=O)/C(C)=C/C1=C(C)CCCC1(C)C [(E)-3-methyl-4-(2,6,6-trimethylcyclohex-1-en-1-yl)but-3-en-2-one] | Positive |
| CC(=O)/C(C)=C/C1C(C)=CCCC1(C)C (stereo not shown) [(E)-3-methyl-4-(2,6,6-trimethylcyclohex-2-en-1-yl)but-3-en-2-one] | Positive |
| CC1=CCC(/C=C/C(C)C(C)O)C1(C)C (stereo not shown) [(E)-3-methyl-5-(2,2,3-trimethylcyclopent-3-en-1-yl)pent-4-en-2-ol] | Positive |
| O=CCC/C=C1\CC2CC1[C@H]1CCC[C@@H]21 (stereo partly drawn) [(E)-4-((3aS,7aS)-hexahydro-1H-4,7-methanoinden-5(6H)-ylidene)butanal] | Positive |
| C/C=C(\CC)CCC(C)CCO (stereo not shown) [(E)-6-ethyl-3-methyloct-6-en-1-ol] | Positive |
| CC1C/C=C/CCCCCCCC(=O)OCC1 (stereo not shown) [(E)-13-methyloxacyclopentadec-10-en-2-one] | Positive |
| CCCCCC/C=C/C(=O)OC [(E)-methyl non-2-enoate] | Positive |
| CC1C/C=C\CCCCCCCCCC(=O)C1 (stereo not shown) [(Z)-3-methylcyclopentadec-5-enone] | Positive |
| O=Cc1ccc2c(c1)OCO2 [benzo[d][1,3]dioxole-5-carbaldehyde] | Positive |
| O=C(OC1CCCCC1)c1ccccc1O [cyclohexyl 2-hydroxybenzoate] | Positive |
| CCOC(=O)CC1(C)OCCO1 [ethyl 2-(2-methyl-1,3-dioxolan-2-yl)acetate] | Positive |
| CCOC(=O)C(C)C [ethyl 2-methylpropanoate] | Positive |
| CCCCCCC(=O)OCC [ethyl heptanoate] | Positive |
| CCCCCCCC(=O)OCC [ethyl octanoate] | Positive |
| COC(=O)c1ccccc1N [methyl 2-aminobenzoate] | Positive |
| CCCCCCC#CC(=O)OC [methyl non-2-ynoate] | Positive |
| mercapto-para-menthan-3-one | Positive |

Same assay, conditions: Table 4; series of 80 fragrance compositions

| Compound | Impact on scalp MOC of fragrance composition |
| --- | --- |
| CC(=O)/C=C/C1C(C)=CCCC1(C)C (stereo not shown) [(E)-4-(2,6,6-trimethyl-1-cyclohex-2-enyl)but-3-en-2-one] | Negative |
| CC(=O)/C=C/C1=C(C)CCCC1(C)C [(E)-4-(2,6,6-trimethylcyclohex-1-en-1-yl)but-3-en-2-one] | Negative |
| CC(=O)OC/C=C(/C)CCC=C(C)C [(Z)-3,7-dimethylocta-2,6-dien-1-yl acetate] | Negative |
| CC/C=C\CC1=C(C)CCC1=O [(Z)-3-methyl-2-(pent-2-en-1-yl)cyclopent-2-enone] | Negative |
| O=C1CCC/C=C\CCCCCCCCCC1 [(Z)-cyclohexadec-5-enone] | Negative |
| CC/C=C\CCOC(=O)c1ccccc1 [(Z)-hex-3-en-1-yl benzoate] | Negative |
| C=CCOC(=O)COC1CCCCC1 [allyl 2-(cyclohexyloxy)acetate] | Negative |
| CC(=O)OCc1ccccc1 [benzyl acetate] | Negative |
| CCC(=O)OCc1ccccc1 [benzyl propanoate] | Negative |
| CCOC(=O)C1=C(C)C=CCC1(C)C [ethyl 2,6,6-trimethylcyclohexa-1,3-diene-1-carboxylate] | Negative |
| CCOC(=O)C1OC1(C)c1ccccc1 (stereo not shown) [ethyl methyl phenyl glycidate] | Negative |
| CCCCCCC1C(=O)CCC1C(=O)OC (stereo not shown) [methyl 2-hexyl-3-oxocyclopentane-1-carboxylate] | Negative |
| C=CCOC(=O)CCC1CCCCC1 [prop-2-enyl 3-cyclohexylpropanoate] | Negative |
| CC(C)CC1CC(C)(O)CCO1 (stereo not shown) [tetrahydro-4-methyl-2-(2-methylpropyl)-2H-pyran-4-ol] | Negative |
| CCCCCCCCCCC=O [undecanal] | Negative |
